Nine compounds from PubChem BioAssay (NCI) can be followed below.

Holding throughout (test): NCI tumour cell line growth inhibition, 48 h
Test [1] concerns ACHN renal.
In test [2] the test system is CAKI-1 renal.
Test [3] concerns HCT-116 colon.
In test [4] the test system is K-562 leukemia.
Test [5] relates to MDA-MB-435.
Test [6] deals with NCI-H226 lung.
In test [7] the test system is NCI-H460 lung.
Test [8] concerns NCI-H522 lung.
Test [9] has as its system OVCAR-4 ovarian.
Test [10] deals with PC-3 prostate.
Test [11] has as its system SK-MEL-5 melanoma.
Test [12] concerns SW-620 colon.
In test [13] the test system is UACC-257 melanoma.
For test [14], the system named is UO-31 renal.

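These data come from cells grown in 96-well plates and exposed to compound for 48 hours at five concentrations. At the GI50, growth is halved. Definition used: TGI = concentration required for complete inhibition of growth.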

In the case of `COCC1OCCN1C` (configuration not stated), the TGI in test [1], in test [2], in test [3], in [4], in [5] and in [6] was over 100 µM throughout. Further, the TGI in test [7], in test [8], in [9], in test [10], in test [11] and in [12] was over 100 µM in each case. Also, the TGI in test [13] and in test [14] was over 100 µM each time.
On to `COc1c(C(CC(C)C)OC(C)=O)ccc2c1C(=O)OCc1cc(C)cc(O)c1O2` (configuration not stated), for which the TGI in test [1] was 23.2 µM; in test [2], 32.2 µM; in test [3], 25.1 µM; in test [4], over 100 µM; in test [5], 26.6 µM; in [6], 30 µM. Besides, the TGI in test [7] is 26.8 µM; in test [8], 26.2 µM; in test [9] it was 27.1 µM; in test [10], 21.6 µM; in [11], 23.2 µM; in test [12], 31.5 µM. The TGI in test [13] was 21.6 µM; in test [14], 19.7 µM.
`COC(=O)C(Cc1ccccc1)C(=O)NC(CNC(=O)OCc1ccccc1)C(=O)OCc1ccccc1` (configuration not stated): the TGI in test [1] is over 100 µM; in test [2], over 87.2 µM; in [3] it was 77.9 µM; in test [4], 45 µM; in test [5], 50 µM; in [6], over 80.2 µM. The TGI is over 100 µM in test [7]; 72.3 µM in test [8]; over 100 µM in [9]; over 100 µM in test [10]; 34 µM in test [11]; over 100 µM in [12]. For the same compound, the TGI in test [13] was 34.7 µM; in test [14], over 94.4 µM.
As to `CCC/C(Cl)=N\OC(=O)Nc1ccc(Br)cc1`, the TGI was 20.3 µM in test [1]; 5.77 µM in test [2]; 26.2 µM in test [3]; 4.15 µM in [4]; 28.7 µM in [5]; 44 µM in test [6]. Besides, the TGI in [7] is 34.6 µM; in [8], 3.53 µM; in [9], 48.2 µM; in [10] it was 28.4 µM; in [11], 27.7 µM; in test [12] it was 5.52 µM. Besides, the values for the TGI in test [13] and in test [14] were 27 µM and 25.7 µM, respectively.
For `C/C(=C\c1csc(C)n1)[C@@H]1C[C@@H]2O[C@]2(C)CCC[C@H](C)[C@H](O)[C@@H](C)C(=O)C(C)(C)[C@@H](O)CC(=O)O1` (tested in a mixture with another compound), the TGI in test [1] was over 1 µM; in [2] it was over 1 µM; in test [3], over 0.183 µM; in test [4] it was over 1 µM; in test [5], 0.00284 µM; in test [6], over 1 µM. The TGI in [7] was over 1 µM; in test [8], 0.00766 µM; in test [9], over 1 µM; in test [10], over 1 µM; in [11] it was over 1 µM; in test [12] it was over 1 µM. Besides, the TGI in test [13] and in test [14] was over 1 µM throughout. Further, the GI50 in test [4] was 0.0262 µM.
Turning to `CCC1=NC(N/N=C/c2ccccc2O)=N/C1=C\c1ccccc1O`, the TGI was 29.5 µM in test [1]; over 100 µM in [2]; 39.8 µM in test [3]; over 100 µM in test [4]; over 81.2 µM in test [5]; over 69 µM in test [6]. The TGI was 18.7 µM in test [7]; 21 µM in [8]; over 31.3 µM in [9]; over 100 µM in [10]; over 100 µM in [11]; over 100 µM in [12]. Also, the TGI in test [13] is over 100 µM; in test [14] it was 20.4 µM.
In the case of `CC1=C/C(=N\N(C)C)C(C(O)(C(F)(F)F)C(F)(F)F)C(C)(C)C1` (configuration not stated), the TGI in test [1], in [2], in [3], in [4], in [5] and in test [6] was over 100 µM throughout. In addition, the TGI in test [7], in test [8], in test [9], in [10], in [11] and in test [12] was over 100 µM in each case. Further, the TGI in test [13] and in test [14] was over 100 µM each time.
Take `CCCOc1ccc(/C=C/C2=[N+](CCO)CCO2)cc1`: the TGI in [1], in test [2], in test [3], in test [4], in test [5] and in [6] was over 100 µM in each case. The TGI in test [7], in [8], in [9], in test [10], in test [11] and in test [12] was over 100 µM each time. The TGI in [13] and in [14] was over 100 µM throughout.
With `COC(=O)C1=C(C(=O)OC)C(C(=O)c2ccccc2)N2N=C(c3ccc(Cl)cc3)C=CC12` (configuration not stated), the TGI was over 100 µM in test [1]; over 100 µM in [2]; over 100 µM in [3]; over 100 µM in test [4]; over 100 µM in test [5]; 66.1 µM in test [6]. In addition, the TGI in [7] is over 100 µM; in [8], 43.5 µM; in [9] it was over 100 µM; in test [10] it was over 100 µM; in test [11] it was over 100 µM; in [12], over 100 µM. Besides, the TGI in test [13] and in test [14] was over 100 µM throughout.
